For this assay, the system named is Onchocerca gutturosa Adult Male Worms. Kind of assay: Onchocerciasis in vitro screening model, worm motility score. The settings on record: read-out: O. gutturosa activity level (IC50 or MED). Type of assay: cell-based.
The mark [1] stands for this setting: in vitro, Onchocerca gutturosa adult male worms, class A/B/C.
Where [2] appears, read: Onchocerca gutturosa, Table 1 O. gutturosa, levels A/B/C, motility or MTT readout not specified.

Each structure is given as a SMILES string. Where two headings read alike, the source gives them in different places.

As for `CC(=O)N(C)c1cnc(Nc2nc(-c3cc(OC(C)C)ccn3)ns2)c(C(F)(F)F)c1` [Compound 285, N-(6-(3-(4-isopropoxy-pyridin-2-yl)-1,2,4-thiadiazol-5-ylamino)-5-(trifluoromethyl)pyridin-3-yl)-N-methylacetamide], under setting [1], the 50% inhibitory concentration (IC50) was in the range of 500 to 5000 nM.
As to `CC(C)Oc1ccc(-c2nsc(Nc3nccnc3N(C)C)n2)nc1` [Compound 144, N2-(3-(5-isoprop-oxypyridin-2-yl)-1,2,4-thiadiazol-5-yl)-N3,N3-dimethyl-pyrazine-2,3-diamine], the IC50 under setting [2] is 200 to 500 nM.
Still for that read-out and setting: in the case of `O=C(NCC1CC1)c1ccc(Nc2nc(-c3ccc(OC4CC4)cn3)ns2)nc1` [Compound 106, 6-(3-(5-cyclo-propoxypyridin-2-yl)-1,2,4-thiadiazol-5-ylamino)-N-(cyclopropyl-methyl) nicotinamide] it was 500 to 5000 nM.
As to `CC(C)Oc1cccnc1-c1nsc(Nc2ncc(C(F)(F)F)cc2C(=O)N(C)C)n1` [Compound 281, 2-(3-(3-isoprop-oxypyridin-2-yl)-1,2,4-thiadiazol-5-ylamino)-N,N-dimethyl-5-(trifluoromethyl) nicotinamide], the IC50 under setting [1] is 500 to 5000 nM.
As for `Cc1cccnc1Nc1nc(-c2cc(OC3CC3)ccn2)ns1` [Compound 65, 3-(4-cycloprop-oxypyridin-2-yl)-N-(3-methyl-pyridin-2-yl)-1,2,4-thiadiazol-5-amine], under setting [2], the IC50 lay within 500 to 5000 nM.
The same measure, in the same setting: the value for `CC(C)COc1ccc(-c2nsc(Nc3ncccc3N(C)C)n2)nc1` [Compound 149, N2-(3-(5-isobutoxy-pyridin-2-yl)-1,2,4-thiadiazol-5-yl)-N3,N3-dimethyl-pyridine-2,3-diamine] was less than 200 nM.
On the same count and under the same terms, the value for `O=C(CC(F)(F)F)N1CCN(c2ccc(Nc3nc(-c4ccc(OC5CC5)cn4)ns3)nc2)CC1` [Compound 113, 1-(4-(6-(3-(5-cycloprop-oxypyridin-2-yl)-1,2,4-thiadiazol-5-ylamino)pyridin-3-yl)piperazin-1-yl)-3,3,3-trifluoro-propan-1-one] was 500 to 5000 nM.
With `CC(=O)N(C)c1cccnc1Nc1nc(-c2cc(C(F)F)c(OC(C)C)cn2)ns1` [Compound 261, N-(2-(3-(4-(difluoromethyl)-5-isopropoxy-pyridin-2-yl)-1,2,4-thiadiazol-5-ylamino)pyridin-3-yl)-N-methylacetamide], under setting [1], the IC50 was 500 to 5000 nM.
Take `Cc1cccnc1Nc1nnc(-c2cc(OC(C)C)ccn2)o1` [Compound 211, 5-(4-isopropoxy-pyridin-2-yl)-N-(3-methyl-pyridin-2-yl)-1,3,4-oxadiazol-2-amine]: under setting [1], the IC50 was in the range of 500 to 5000 nM.
As for `CC(C)Oc1ccc(-c2nsc(Nc3ncccc3N(C)C(=O)C3CC3)n2)nc1` [Compound 170, N-(2-(3-(5-isopropoxy-pyridin-2-yl)-1,2,4-thiadiazol-5-ylamino)pyridin-3-yl)-N-methylcyclo-propanecarbox-amide], the concentration for half-maximal inhibition (IC50) under setting [2] lay within 200 to 500 nM.
On to `CC(=O)N(C)c1cc(C(F)(F)F)cnc1Nc1nc(-c2cc3c(cn2)N(C)CC3)ns1` [Compound 249, N-methyl-N-(2-(3-(1-methyl-2,3-dihydro-1H-pyrrolo[2,3-c]pyridin-5-yl)-1,2,4-thiadiazol-5-ylamino)-5-(trifluoromethyl)pyridin-3-yl)acetamide], for which the half-maximal inhibitory concentration (IC50) under setting [1] lay in the range of 200 to 500 nM.
As for `CC(C)Oc1ccc(-c2nsc(Nc3ncccc3C(=O)N(C)C3CC(F)(F)C3)n2)nc1` [Compound 191, N-(3,3-difluoro-cyclobutyl)-2-(3-(5-isoprop-oxypyridin-2-yl)-1,2,4-thiadiazol-5-ylamino)-N-methyl-nicotinamide], the IC50 under setting [2] was in the range of 200 to 500 nM.
`CC(=O)N(C)c1cccnc1Nc1nc(-c2cc(C(C)C)c(C)cn2)ns1` [Compound 223, N-(2-(3-(4-isopropyl-5-methylpyridin-2-yl)-1,2,4-thiadiazol-5-ylamino)pyridin-3-yl)-N-methyl-acetamide]: the IC50 under setting [1] was 200 to 500 nM.
For the compound `COc1cccnc1Nc1nc(-c2ccc(OCC(F)(F)F)cn2)ns1` [Compound 105, N-(3-methoxy-pyridin-2-yl)-3-(5-(2,2,2-trifluoroethoxy)pyridin-2-yl)-1,2,4-thiadiazol-5-amine], the IC50 under setting [2] was less than 200 nM.
Consider `CC(C)Oc1ccc(-c2nsc(Nc3ncc(C(F)(F)F)cc3N(C)C(=O)C3CC3)n2)nc1` [Compound 248, N-(2-(3-(5-isopropoxy-pyridin-2-yl)-1,2,4-thiadiazol-5-ylamino)-5-(trifluoro-methyl)pyridin-3-yl)-N-methylcyclo-propanecarbox-amide], for which the IC50 under setting [1] fell in the range of 500 to 5000 nM.
In the case of `CC(C)Oc1ccc(-c2nsc(N(C)c3ncccc3C(C)C)n2)nc1` [Compound 130, 3-(5-isopropoxy-pyridin-2-yl)-N-(3-isopropy-lpyridin-2-yl)-N-methyl-1,2,4-thiadiazol-5-amine], under setting [2], the IC50 fell in the range of 500 to 5000 nM.
Still for that read-out and setting: the value for `CN(C)c1cccnc1Nc1nc(-c2ccc(OC3CC3)cn2)ns1` [Compound 78, N2-(3-(5-cyclopropoxy-pyridin-2-yl)-1,2,4-thiadiazol-5-yl)-N3,N3-dimethyl-pyridine-2,3-diamine] was 500 to 5000 nM.
Regarding `CN(C)C(=O)c1cc(C(F)(F)F)cnc1Nc1nc(-c2cc3c(cn2)N(C)C(C)(C)C3)ns1` [Compound 293, N,N-dimethyl-5-(trifluoromethyl)-2-(3-(1,2,2-trimethyl-2,3-dihydro-1H-pyrrolo[2,3-c]pyridin-5-yl)-1,2,4-thiadiazol-5-ylamino) nicotinamide], under setting [1], the IC50 was less than 200 nM.
Take `COc1ccc(-c2nnc(Nc3cc(OC(C)C)ccn3)o2)nc1` [Compound 255, N-(4-isoprop-oxypyridin-2-yl)-5-(5-methoxy-pyridin-2-yl)-1,3,4-oxadiazol-2-amine]: the IC50 under setting [1] is 500 to 5000 nM.
Same read-out and setting: the value for `CC(C)Oc1cnc(-c2nsc(Nc3ncccc3C(F)(F)F)n2)cc1C(N)=O` [Compound 220, 5-isopropoxy-2-(5-(3-(trifluoromethyl)pyridin-2-ylamino)-1,2,4-thiadiazol-3-yl)isonico-tinamide] was 200 to 500 nM.
Consider `COc1ccnc(-c2nsc(Nc3ccc(C(F)(F)F)cn3)n2)c1` [Compound 176, 3-(4-methoxy-pyridin-2-yl)-N-(5-(trifluoromethyl)pyridin-2-yl)-1,2,4-thiadiazol-5-amine], for which, under setting [2], the IC50 was less than 200 nM.
Same read-out and setting: the value for `Cc1cccnc1Nc1nc(-c2ccc(OC3CC4(C3)CN(C)C4)cn2)ns1` [Compound 88, 3-(5-(2-methyl-2-azaspiro[3.3]heptan-6-yloxy)pyridin-2-yl)-N-(3-methylpyridin-2-yl)-1,2,4-thiadiazol-5-amine] was 500 to 5000 nM; that for `CC(C)Oc1cnc(-c2nsc(Nc3ncccc3C(C)C)n2)cc1C(F)(F)F` [Compound 168, 3-(5-isoprop-oxy-4-(trifluoromethyl)pyridin-2-yl)-N-(3-isopropyl-pyridin-2-yl)-1,2,4-thiadiazol-5-amine] was less than 200 nM; that for `CC(C)c1cccnc1Nc1nc(-c2ccc(OC3CCN(C4CC4)CC3(F)F)cn2)ns1` (stereo not shown) [Compound 87, 3-(5-(1-cyclo-propyl-3,3-difluoro-piperidin-4-yloxy)pyridin-2-yl)-N-(3-isopropylpyridin-2-yl)-1,2,4-thiadiazol-5-amine] was less than 200 nM.
Regarding `CC(C)Oc1cnc(-c2nsc(Nc3ncccc3S(=O)(=O)N(C)C)n2)cc1C(F)(F)F` [Compound 320, 2-(3-(5-isopropoxy-4-(trifluoromethyl)pyridin-2-yl)-1,2,4-thiadiazol-5-ylamino)-N,N-dimethyl-pyridine-3-sulfonamide], the IC50 under setting [1] is 500 to 5000 nM.
Still for that read-out and setting: the value for `CC(=O)N(C)c1cc(C(F)(F)F)cnc1Nc1nc(-c2cc3c(cn2)CCN3C(C)C)ns1` [Compound 304, N-(2-(3-(1-isopropyl-2,3-dihydro-1H-pyrrolo[3,2-c]pyridin-6-yl)-1,2,4-thiadiazol-5-ylamino)-5-(trifluoromethyl)pyridin-3-yl)-N-methylacetamide] was less than 200 nM.
With `COC(=O)c1cc(-c2nsc(Nc3ncccc3C)n2)ncc1OC(C)C` [Compound 196, methyl 5-isopropoxy-2-(5-(3-methylpyridin-2-ylamino)-1,2,4-thiadiazol-3-yl)isonicotinate], the IC50 under setting [2] lay within 200 to 500 nM.
The same measure, in the same setting: the value for `CC(=O)Nc1cccnc1Nc1nc(-c2ccc(OC(C)C)cn2)ns1` [Compound 161, N-(2-(3-(5-isopropoxy-pyridin-2-yl)-1,2,4-thiadiazol-5-ylamino)pyridin-3-yl)acetamide] was 500 to 5000 nM.
For the compound `CC(=O)N(C)c1cccnc1Nc1nc(-c2cc(C(C)C)ccn2)ns1` [Compound 216, N-(2-(3-(4-iso-propylpyridin-2-yl)-1,2,4-thiadiazol-5-ylamino)pyridin-3-yl)-N-methyl-acetamide], the IC50 under setting [1] lay within 200 to 500 nM.
Turning to `CC(=O)N(C)c1cc(C(F)(F)F)cnc1Nc1nc(-c2ccc(OC(C)C)cn2)ns1` [Compound 247, N-(2-(3-(5-isopropoxy-pyridin-2-yl)-1,2,4-thiadiazol-5-ylamino)-5-(trifluoro-methyl)pyridin-3-yl)-N-methylacetamide], under setting [1], the IC50 is less than 200 nM.
In the case of `CC(C)Oc1ccc(-c2nsc(Nc3cc(C(F)(F)F)c(C(C)C)cn3)n2)nc1` [Compound 119, 3-(5-isopropoxy-pyridin-2-yl)-N-(5-isopropyl-4-(trifluoromethyl)pyridin-2-yl)-1,2,4-thiadiazol-5-amine], the IC50 under setting [2] is less than 200 nM.
Regarding `CC(=O)N(c1cccnc1Nc1nc(-c2ccc(OC(C)C)cn2)ns1)C(C)C` [Compound 205, N-(2-(3-(5-isopropoxy-pyridin-2-yl)-1,2,4-thiadiazol-5-ylamino)pyridin-3-yl)-N-isopropy-lacetamide], the IC50 under setting [1] fell in the range of 500 to 5000 nM.
As to `COc1ccc(-c2nsc(Nc3cc(C(F)(F)F)c(C(C)C)cn3)n2)nc1` [Compound 66, N-(5-isopropyl-4-(trifluoromethyl)pyridin-2-yl)-3-(5-methoxy-pyridin-2-yl)-1,2,4-thiadiazol-5-amine], the IC50 under setting [2] was in the range of 200 to 500 nM.
`c1ccc(-c2nsc(Nc3ccc(OC4CCNCC4)cn3)n2)nc1` [Cmpd 10, N-(5-(piperidin-4-yloxy)pyridin-2-yl)-3-(pyridin-2-yl)-1,2,4-thiadiazol-5-amine]: the IC50 under setting [2] was in the range of 500 to 5000 nM.

A word on the IC50: it is the concentration at which inhibition is half-maximal.

Values taken from patent publication US11505548B2, “Heterocyclic compounds and their use for treatment of helminthic infections and diseases” (Celgene Corporation, priority 2019, dated 2022).
